{"source": "patent US11065269B1", "about": "“Method of using astaxanthin for the treatment of diseases, and more particularly, the treatment of cancer” (priority 2018, dated 2021)", "key": {"[1]": {"details": "relative to betacarotene; cited from earlier work"}, "[2]": {"assay": "increasing astaxanthin levels in the diet (experiments conducted with the invention)", "type": "in vivo", "description": "In experiments conducted with the present invention, it is been shown that increasing astaxanthin levels in the diet can be used as a pre-cancer, cancer and anti-inflammatory prophylactic at levels up to 400 mg per day."}, "[3]": {"details": "cited from earlier work"}, "[4]": {"details": "oral; cited from earlier work"}}}
{"smiles": "CC1=C(/C=C/C(C)=C/C=C/C(C)=C/C=C/C=C(C)/C=C/C=C(C)/C=C/C2=C(C)C(=O)[C@@H](O)CC2(C)C)C(C)(C)C[C@H](O)C1=O", "note": "[astaxanthin]", "values": [{"measurement": "times more reactive as an antioxidant than betacarotene", "setting": "[1]", "result": 400, "unit": "times"}, {"measurement": "side effects", "setting": "[2]; dietary levels up to 400 mg per day", "result": "No discernible side effects"}, {"measurement": "side effects or skin color changes", "setting": "[2]; treatment of greater than 50 mg per day", "result": "No side effects or skin color changes were observed"}, {"measurement": "feces colour", "setting": "[2]; up to 400 mg per day, from unabsorbed astaxanthin", "result": "some decolorization of feces"}, {"measurement": "anti-inflammatory effect and pain reduction associated with arthritis", "setting": "[2]; within four weeks of treatment of greater than 50 mg per day", "result": "Anti-inflammatory and pain reduction associated with arthritis were noted"}, {"measurement": "singlet oxygen quenching, times stronger than CoQ10", "setting": "[3]; relative to CoQ10", "result": 800, "unit": "times"}, {"measurement": "singlet oxygen quenching, times stronger than vitamin C", "setting": "[3]; relative to vitamin C", "result": 6000, "unit": "times"}, {"measurement": "singlet oxygen quenching, times stronger than vitamin E", "setting": "[3]; relative to vitamin E", "result": 550, "unit": "times"}, {"measurement": "toxic side effects", "setting": "[4]", "result": "No toxic side effects have been observed"}]}
